For series [1], the system named is C2O4^2− transport, MDCK cells. The experiment in a line: In vitro litholytic activity: C2O4^2− transport inhibition, Transwell chamber with MDCK cells. Type of series: cell-based, canine. The following applies: for inhibition at 100 µM: Canis lupus familiaris, 100 μmol/L, MDCK cells in Transwell, mean ± SD of three replicates, read-out: Transport Inhibition Rate (%) C2O4^2−; for C2O4^2− transport inhibition activity at different time periods: 1, 2, and 3 h (Figure 4). How it is done:
(§1) On the other hand, all compounds had little inhibitory effect on Ca^2+ transport. The structure–activity relationships (SARs) were also observed. […] On the other hand, the introduction of the benzyl group to the R^1 or R^2 of barbatic acid could not lead to more promising compounds, such as 6a, 6n, 6u, 6b′, and 6i′–p′.
(§2) Logarithmic-phase DMCK cells were inoculated in the upper chamber of a Transwell plate (4 × 10^4 cells/well). Then, 800 µL of complete culture medium was added to the lower chamber, and the cells were incubated for 24 h until they adhered to the wall. The resistance value of the upper chamber cells was measured one by one at 37 °C (R = (Rcell − Rblank) × 0.04π). When the resistance value of the upper chamber cells was ≥300 Ω cm^2, the upper chamber liquid was discarded for drug administration. A control group (given physiological saline) and an experimental group (1, 6a–6p′, 100 μmol/L) were set up, and 100 µL of each drug was administered per well, followed by continued incubation for 24 h. Then, the upper and lower chamber liquids were discarded, and 200 µL of CaC2O4 (30 mmol/L) solution was added to the upper chamber, and 800 µL of PBS solution was added to the lower chamber for continued incubation. At 0.5, 1, 2, and 3 h, 50 µL of the lower chamber liquid was taken and then tested using the Ca^2+ and C2O4^2− detection kits and the following detection methods. The transport inhibition rate (%) = (ODblank − ODexperimental)/ODblank × 100%.

In series [2] the test system is Cl^− transport, MDCK cells. The experiment in a line: In vitro diuretic activity: Cl^− transport inhibition, Transwell chamber seeded with MDCK cells. Type of series: cell-based, canine. The conditions noted are these: Canis lupus familiaris; 100 μmol/L, MDCK cells in Transwell; mean ± SD of three replicates; negative = promotion; read-out: Transport Inhibition Rate (%) Cl^−. The source says: (§3) The traditional methods for screening diuretic drugs are mostly in vivo experiments with mice, which have a long experimental cycle and are not suitable for screening massive compounds. As we know, the generation and excretion of urine involve two processes: glomerular filtration and tubular reabsorption. Reabsorption refers to the process in which the renal tubular epithelial cells transport water and certain solutes from the tubular fluid (urine) partially or entirely back into the bloodstream. Then, 99% of the water in the original urine filtered by the glomerulus is reabsorbed, and the transport of Na^+ and Cl^− plays an important role in this process. Thiazide and furosemide diuretics exert their diuretic effects by inhibiting the transport of Na^+ and Cl^−, which affects the tubular reabsorption of the original urine. Based on this principle, we established a new type of cell screening model for diuretic active drugs. Madin–Darby canine kidney (MDCK) cells were inoculated into a Transwell chamber to simulate the renal tubules. This cell model could transport and absorb external NaCl, simulating the reabsorption phenomenon. […] The effectiveness of this model was confirmed by the validation of hydrochlorothiazide, which is a commercially available diuretic drug and could inhibit the transport of Na^+ and Cl^− in renal tubules.
(§4) Generally, the transport of Na^+ and Cl^− plays an important role in glomerular filtration and tubular reabsorption. […] For example, inhibition rates of transport of 6a and 6c were over 30%, and had better inhibitory ability than barbatic acid. […] When ethyl, propyl, and benzyl were substituted on R^1, the introduction of any group could not enhance the inhibitory activity of barbatic acid, such as 6h–u and 6j′–6p′.
(§5) Log-phase MDCK cells were seeded in the upper chambers of Transwell plates (4 × 10^4 cells/well), and 800 µL of complete culture medium was added to the lower chambers. After 24 h of incubation at 37 °C, the electrical resistance of the upper chamber cells was measured one by one (R = (Rcell − Rblank) × 0.04π). When the electrical resistance of the upper chamber cells reached ≥300 Ω cm^2, the upper chamber medium was removed and replaced with the drug solution. The blank group (given normal saline), the experimental group (1, 6a–6p′, 100 μmol/L), and the hydrochlorothiazide group (100 μmol/L) were set, and each well was treated with 100 µL of the corresponding solution. The cells were then further incubated for 24 h. After that, the upper and lower chamber fluids were removed, and 200 µL of NaCl solution (15 mg/mL) was added to the upper chamber, while 800 µL of DMEM was added to the lower chamber for continued incubation. At 0.5, 1, 2, and 3 h, 50 µL of the lower chamber fluid was taken and the OD values were measured using Na^+ and Cl^− detection kits. The transport inhibition rate (%) was calculated as follows: transport inhibition rate (%) = (ODblank − ODexperimental)/ODblank × 100%.

For series [3], the system named is Na^+ transport, MDCK cells. Kind of series: In vitro diuretic activity: Na^+ transport inhibition, Transwell chamber seeded with MDCK cells. Type of series: cell-based, canine. The following applies: Canis lupus familiaris, MDCK, 100 μmol/L, MDCK cells in Transwell; mean ± SD of three replicates; negative = promotion; read-out: Transport Inhibition Rate (%) Na^+.
Text: as §3, §4, §5

Series [4] relates to Ca^2+ transport, MDCK cells. Kind of series: In vitro litholytic activity: Ca^2+ transport inhibition, Transwell chamber with MDCK cells. It counts as cell-based, canine. The following applies: Canis lupus familiaris, 100 μmol/L, mean ± SD of three replicates, read-out: Transport Inhibition Rate (%) Ca^2+. How it is done: as §1, §2
Series [5] concerns MDCK cells. Kind of series: MTT cytotoxicity assay on MDCK cells. It counts as cell-based, canine. The conditions noted are these: Canis lupus familiaris, 100 μmol/L, 24 h, mean ± SD of three replicates, read-out: Growth Inhibition Rate (%). The method, then:
First, we used the MTT method to perform cytotoxicity of barbatic acid derivatives (1, 6a–6p′) on MDCK cells at the concentration of 100 μmol/L, and the results are shown in Table 1.
The MTT assay was used to evaluate the cytotoxicity of the target compounds on DMCK cells. Logarithmic-growth-phase DMCK cells were seeded in a 96-well plate (10^4 cells/well) and incubated in a cell culture incubator for 24 h. The culture medium was then removed and replaced with a drug-containing medium for the treatment groups (1, 6a–6p′, 100 μmol/L), normal saline for the control group, or hydrochlorothiazide (100 μmol/L) for the positive control group. Each well was treated with 100 µL of the respective solution and incubated for an additional 24 h. The culture medium was then removed and replaced with a DMEM solution containing 20 µL of MTT (5 mg/mL). After incubating for 4 h, the liquid in each well was removed and replaced with 150 µL of DMSO, which was shaken for 10 min to ensure thorough mixing. The absorbance at 490 nm was measured to determine the optical density (OD) of each well. Cell growth inhibition rate (%) = (ODBlank − ODExperimental)/ODBlank × 100%.
In general terms: Formazan colour is commonly taken as a measure of viable cells.

A word on the inhibition: it is the relative decrease from the control value, in per cent. As usually defined, the melting point is the temperature of the solid-liquid transition. The molecule `CCOc1cc(C)c(C(=O)Oc2cc(C)c(C(=O)OC)c(O)c2C)c(O)c1C` [Compound 6h, 3-hydroxy-4-(methoxycarbonyl)-2,5-dimethylphenyl 4-ethoxy-2-hydroxy-3,6-dimethylbenzoate] displayed a melting point of 152 to 155 °C. For the same molecule, the inhibition at 100 µM in series [1] is -4.23 ± 4.77%. Further, the inhibition at 100 µM in series [2] worked out at 2.19 ± 0.55%. The inhibition at 100 µM in series [3] was -7.67 ± 1%. Besides, in series [4], the inhibition at 100 µM was -3.85 ± 0.19%. Besides, the inhibition at 100 µM in series [5] was under 0%.
Regarding `CCOC(=O)c1c(C)cc(OC(=O)c2c(C)cc(OCC)c(C)c2O)c(C)c1O` [Compound 6i, 4-(ethoxycarbonyl)-3-hydroxy-2,5-dimethylphenyl 4-ethoxy-2-hydroxy-3,6-dimethylbenzoate], the melting point was 187 to 190 °C. For the same molecule, in series [1], the inhibition at 100 µM turned out to be 54 ± 10.4%. In series [2], the inhibition at 100 µM was -2.13 ± 1.9%. Besides, in series [3], the inhibition at 100 µM was 5.2 ± 3.6%. Also, the inhibition at 100 µM in series [4] was found to be 1.71 ± 0.13%. The inhibition at 100 µM in series [5] was under 0%.
For the molecule `CCCOC(=O)c1c(C)cc(OC(=O)c2c(C)cc(OCC)c(C)c2O)c(C)c1O` [Compound 6j, 3-hydroxy-2,5-dimethyl-4-(propoxycarbonyl)phenyl 4-ethoxy-2-hydroxy-3,6-dimethylbenzoate], the melting point was in the range of 154 to 157 °C. Further, in series [1], the “C2O4^2− transport inhibition activity at different time periods” value is “very strong and continual inhibitory activities”; the inhibition at 100 µM amounted to 42.3 ± 1.66%. The inhibition at 100 µM in series [2] was 5.75 ± 1.1%. Moreover, in series [3], the inhibition at 100 µM is 5.2 ± 3.6%. Besides, the inhibition at 100 µM in series [4] was 4.45 ± 0.29%. Further, in series [5], the inhibition at 100 µM is under 0%.
In turn, `CCOc1cc(C)c(C(=O)Oc2cc(C)c(C(=O)OC(C)C)c(O)c2C)c(O)c1C` [Compound 6k, 3-hydroxy-4-(isopropoxycarbonyl)-2,5-dimethylphenyl 4-ethoxy-2-hydroxy-3,6-dimethylbenzoate] displayed a melting point of 125 to 128 °C. Also, the inhibition at 100 µM in series [1] was -5.12 ± 1.75%. Moreover, the inhibition at 100 µM in series [2] is -7.1 ± 1%. In addition, the inhibition at 100 µM in series [3] was -62.5 ± 1.95%. Moreover, the inhibition at 100 µM in series [4] was determined as 1.2 ± 0.13%. Moreover, the inhibition at 100 µM in series [5] is under 0%.
In the case of `CCOc1cc(C)c(C(=O)Oc2cc(C)c(C(=O)OCC#N)c(O)c2C)c(O)c1C` [Compound 6m, 4-((cyanomethoxy)carbonyl)-3-hydroxy-2,5-dimethylphenyl 4-ethoxy-2-hydroxy-3,6-dimethylbenzoate], the melting point was 160 to 163 °C. For the same molecule, in series [1], the “C2O4^2− transport inhibition activity at different time periods” value was “very strong and continual inhibitory activities”; the inhibition at 100 µM is 61 ± 2.75%. Besides, the inhibition at 100 µM in series [2] was -29.3 ± 1.75%. Besides, in series [3], the inhibition at 100 µM was -2.99 ± 6%. In series [4], the inhibition at 100 µM came to 2.57 ± 0.1%. For the same molecule, the inhibition at 100 µM in series [5] was under 0%.
In turn, `CCOc1cc(C)c(C(=O)Oc2cc(C)c(C(=O)OCc3ccccc3)c(O)c2C)c(O)c1C` [Compound 6n, benzyl 4-(4-ethoxy-2-hydroxy-3,6-dimethylbenzoyloxy)-2-hydroxy-3,6-dimethylbenzoate] had a melting point of 129 to 131 °C. Moreover, in series [1], the inhibition at 100 µM came out at 0.11 ± 0.7%. In series [2], the inhibition at 100 µM is -4.47 ± 0.2%. Besides, the inhibition at 100 µM in series [3] is -3.98 ± 0.15%. Also, in series [4], the inhibition at 100 µM was -2.13 ± 0.3%. The inhibition at 100 µM in series [5] came to 0.36 ± 0.8%.
`CCCOc1cc(C)c(C(=O)Oc2cc(C)c(C(=O)OC)c(O)c2C)c(O)c1C` [Compound 6o, 3-hydroxy-4-(methoxycarbonyl)-2,5-dimethylphenyl 2-hydroxy-3,6-dimethyl-4-propoxybenzoate] yielded a melting point of 110 to 113 °C. For the same molecule, the inhibition at 100 µM in series [1] is 5.6 ± 3.85%. Moreover, in series [2], the inhibition at 100 µM is -2.8 ± 1.2%. Moreover, the inhibition at 100 µM in series [3] was -2.68 ± 0.45%. Also, the inhibition at 100 µM in series [4] is 4.43 ± 0.13%. Besides, in series [5], the inhibition at 100 µM was under 0%.
With `CCCOc1cc(C)c(C(=O)Oc2cc(C)c(C(=O)OCC)c(O)c2C)c(O)c1C` [Compound 6p, 4-(ethoxycarbonyl)-3-hydroxy-2,5-dimethylphenyl 2-hydroxy-3,6-dimethyl-4-propoxybenzoate], the melting point was in the range of 160 to 163 °C. In addition, in series [1], the inhibition at 100 µM is 4.29 ± 0.24%. Besides, the inhibition at 100 µM in series [2] is -18.38 ± 0.15%. Also, the inhibition at 100 µM in series [3] is -12.2 ± 0.45%. For the same molecule, the inhibition at 100 µM in series [4] was 4.79 ± 0.46%. Moreover, the inhibition at 100 µM in series [5] was under 0%.
`CCCOC(=O)c1c(C)cc(OC(=O)c2c(C)cc(OCCC)c(C)c2O)c(C)c1O` [Compound 6q, 3-hydroxy-2,5-dimethyl-4-(propoxycarbonyl)phenyl 2-hydroxy-3,6-dimethyl-4-propoxybenzoate] returned a melting point of 126 to 130 °C. Moreover, the inhibition at 100 µM in series [1] is -26 ± 4.17%. The inhibition at 100 µM in series [2] stood at 11.6 ± 2.2%. Moreover, the inhibition at 100 µM in series [3] amounted to 9.39 ± 0.25%. Besides, the inhibition at 100 µM in series [4] is 4.61 ± 0.32%. Moreover, in series [5], the inhibition at 100 µM is under 0%.
As to `C=CCOC(=O)c1c(C)cc(OC(=O)c2c(C)cc(OCCC)c(C)c2O)c(C)c1O` [Compound 6r, allyl 2-hydroxy-4-(2-hydroxy-3,6-dimethyl-4-propoxybenzoyloxy)-3,6-dimethylbenzoate], the melting point was in the range of 98 to 111 °C. For the same molecule, the inhibition at 100 µM in series [1] turned out to be 9.67 ± 4.6%. Besides, the inhibition at 100 µM in series [2] is -10.3 ± 1.4%. Besides, the inhibition at 100 µM in series [3] stood at 1.14 ± 1.25%. In addition, the inhibition at 100 µM in series [4] stood at 5.85 ± 0.36%. Moreover, the inhibition at 100 µM in series [5] was under 0%.
For the molecule `CCCOc1cc(C)c(C(=O)Oc2cc(C)c(C(=O)OCC#N)c(O)c2C)c(O)c1C` [Compound 6s, 4-((cyanomethoxy)carbonyl)-3-hydroxy-2,5-dimethylphenyl 2-hydroxy-3,6-dimethyl-4-propoxybenzoate], the melting point is 135 to 138 °C. In series [1], the inhibition at 100 µM stood at 15.7 ± 1.13%. Also, in series [2], the inhibition at 100 µM was -6.21 ± 0.3%. For the same molecule, in series [3], the inhibition at 100 µM is -27.9 ± 0.5%. The inhibition at 100 µM in series [4] was -1.74 ± 0.12%. Further, in series [5], the inhibition at 100 µM was under 0%.
